Results as given in ChEMBL document CHEMBL3352667, “Anti-tumor activity of novel biisoquinoline derivatives against breast cancers” (Bioorg Med Chem Lett, 2014).
Activity calls are given as the source filed them. No cut-off for these calls is given here.

Each compound was assayed on MDA-MB-231 (assay: Cytotoxicity against human MDA-MB-231 cells assessed as growth inhibition after 48 hrs by methylene blue staining-based assay). Details: not given.
Assay type: functional, cell-based

In the case of `COc1cc2c(cc1OC)C(C1=NCCc3cc(OC)c(OC)cc31)=NCC2`, the Activity is reported as “inactive”.
For `COc1cc2c(c(OC)c1OC)CCn1c[n+]3c(c1-2)-c1cc(OC)c(OC)c(OC)c1CC3`, the Activity was “inactive”.

Same assay, conditions: MDA-MB-231, 48 h

Compared with `COc1ccc2c(c1)CCn1c[n+]3c(c1-2)-c1ccc(OC)cc1CC3`, `COc1cc2c(cc1OC)-c1c3[n+](cn1CC2)CCc1cc(OC)c(OC)cc1-3` is 4.9-fold higher in IC50: 3.9 µM for the first, 19 µM for the second.

Compared with `COc1ccc2c(c1OC)CCn1c[n+]3c(c1-2)-c1ccc(OC)c(OC)c1CC3`, `COc1ccc2c(c1OC)C(=O)O[C@@H]2[C@H]1c2c(cc3c(c2OC)OCO3)CCN1C` [NOSCAPINE] is 3.5-fold higher in IC50: 18.2 µM for the first, 64 µM for the second. The first is the more potent here.

`COc1ccc(CCNC(=O)C(=O)NCCc2ccc(OC)c(OC)c2)cc1OC` gave an IC50 of 45 µM.

Each compound was assayed on T47D (assay: Cytotoxicity against human T47D cells assessed as growth inhibition after 48 hrs by methylene blue staining-based assay). Details: not given.
Assay type: functional, cell-based

First: COc1ccc2c(c1)CCn1c[n+]3c(c1-2)-c1ccc(OC)cc1CC3
Second: COc1cc2c(cc1OC)-c1c3[n+](cn1CC2)CCc1cc(OC)c(OC)cc1-3
The IC50 of the first is 34-fold lower: 1 µM for the first, 34 µM for the second. The first is the more potent here.

With `COc1ccc2c(c1OC)CCn1c[n+]3c(c1-2)-c1ccc(OC)c(OC)c1CC3` the IC50 was 13.5 µM.

What follows are compounds tested on BT-474 (assay: Cytotoxicity against human BT474 cells assessed as growth inhibition after 48 hrs by methylene blue staining-based assay). Details: BT-474, 48 h.
Assay type: functional, cell-based

Going from `COc1ccc2c(c1)CCn1c[n+]3c(c1-2)-c1ccc(OC)cc1CC3` to `COc1cc2c(cc1OC)-c1c3[n+](cn1CC2)CCc1cc(OC)c(OC)cc1-3`, the IC50 rises from 0.3 µM to 3.1 µM (10-fold).

Work on `COc1ccc2c(c1OC)CCn1c[n+]3c(c1-2)-c1ccc(OC)c(OC)c1CC3` yielded an IC50 of 0.7 µM.

What follows are compounds tested on MDA-MB-468 (assay: Cytotoxicity against human MDA-MB-468 cells assessed as growth inhibition after 48 hrs by methylene blue staining-based assay). Details: MDA-MB-468, 48 h.
Assay type: functional, cell-based

`COc1ccc2c(c1)CCn1c[n+]3c(c1-2)-c1ccc(OC)cc1CC3` and `COc1cc2c(cc1OC)-c1c3[n+](cn1CC2)CCc1cc(OC)c(OC)cc1-3` are within 1.5-fold of each other in IC50: 1.8 µM for the first, 2.6 µM for the second.

`COc1ccc2c(c1OC)CCn1c[n+]3c(c1-2)-c1ccc(OC)c(OC)c1CC3` showed an IC50 of 2.1 µM.

The compounds below were run on MCF7 (assay: Cytotoxicity against human MCF7 cells assessed as growth inhibition after 48 hrs by methylene blue staining-based assay). Details: MCF7, 48 h.
Assay type: functional, cell-based

Compared with `COc1ccc2c(c1)CCn1c[n+]3c(c1-2)-c1ccc(OC)cc1CC3`, `COc1cc2c(cc1OC)-c1c3[n+](cn1CC2)CCc1cc(OC)c(OC)cc1-3` is 27-fold higher in IC50: 1.3 µM for the first, 35 µM for the second.

First: COc1ccc2c(c1OC)CCn1c[n+]3c(c1-2)-c1ccc(OC)c(OC)c1CC3
Second: COc1ccc2c(c1OC)C(=O)O[C@@H]2[C@H]1c2c(cc3c(c2OC)OCO3)CCN1C [NOSCAPINE]
The IC50 of the first is 7.2-fold lower: 7.9 µM for the first, 57 µM for the second. The first is the more potent here.
